The test system of test [1] is adult mongrel dogs. Briefly: Acute in vivo cardiotonic activity in anesthetized dogs. Details: species or system dog (adult mongrel). The note with it: Canis lupus familiaris, relative to controls; for change in vivo at 0.12 mg/kg: 0.12 mg/kg intravenous; for change in vivo at 1.875 mg/kg: 1.875 mg/kg intravenous; for change in vivo at 0.375 mg/kg: 0.375 mg/kg intravenous; for change in vivo at 0.875 mg/kg: 0.875 mg/kg intravenous; for change in vivo at 0.125 mg/kg: 0.125 mg/kg intravenous; for change in vivo at 8.75 mg/kg: 8.75 mg/kg intravenous; for change in vivo at 0.15 mg/kg: 0.150 mg/kg intravenous. Here is the method: The acute in vivo cardiotonic activity of compounds prepared according to the present invention was determined according to a modification of the procedure described by Alousi et al., Circ. Res., 45, 666 (1979).
In particular, adult mongrel dogs were anesthetized with sodium pentobarbital and were artificially respired. Arterial pressure was monitored via a femoral artery, and the pulse pressure was used to trigger a cardiotachometer for heart rate. Left ventricular pressure was determined with a Millar catheter, and dP/dt (the change in ventricular pressure with time) was derived. Cardiac output was determined by measuring ascending aortic blood flow with an electromagnetic flow probe, and myocardial contractile force was measured with a Walton Brodie strain gauge sutured to the right ventricle. Lead II EKG was also recorded.
A standard dose (10 μ/kg/min) of dopamine was administered to assess myocardial responsiveness.
Compounds of the invention were administered by intravenous infusion or bolus oral administration, and the effects on cardiovascular parameters were determined.
Dose related effects on the test compound on blood pressure (BP), heart rate (HR), maximum change in left ventricular pressure with time (dP/dt max), % change in cardiac force (CF) and the increase in mean arterial blood pressure relative to controls (MABP) were compared to pretreatment control values, expressed as a % change and rated for activity. Statistical evaluations were made using the appropriate parametric test against controls.

Test [2] deals with adult mongrel dogs. As to the kind of experiment: Renal vasodilating activity in anesthetized dogs. The note with it: Canis lupus familiaris; for change in vivo at 6.2 mg/kg: 6.2 mg/kg intravenous; for change in vivo at 0.14 mg/kg: 0.14 mg/kg intravenous; for change in vivo at 1.2 mg/kg: 1.2 mg/kg intravenous; for change in vivo at 0.04 mg/kg: 0.04 mg/kg intravenous; for change in vivo at 0.34 mg/kg: 0.34 mg/kg intravenous; for change in vivo at 0.2 mg/kg: 0.2 mg/kg intravenous. The class given is in vivo, dog (adult mongrel). The method, then: Goldberg et al, J. Pharmacol. Exp. Ther., 163, 188 (1968), performed an investigation of the structural requirements for dopamine-like renal vasodilation of phenethylamines and apmorphine. The following procedure is a variation of the assay described in that report.
Adult mongrel dogs were anesthetized and surgically prepared for electromagnetic measurement of renal artery blood flow. A carotid artery was cannulated for measuring arterial blood pressure, and drugs were administered intravenously or intraarterially (via the renal artery). Heart rate was monitored with a cardiotachometer. Renal vascular resistance was calculated as the ratio of mean arterial blood pressure/renal artery blood flow. Dopamine was infused intravenously at […] for ten minutes (at an infusion rate of about 1 ml/min) to determine responsiveness of each dog to renal dopamine receptor stimulation. Cumulative dose-response data were obtained by infusing a compound of this invention at progressively increasing (usually three-fold) infusion rates, esch dose being infused for five minutes. The maximum percent increase from pre-drug control in renal artery blood flow (or a decrease in renal vascular resistance) was determined for each infusion dose.
RBF values are percent increase in renal blood flow. RVR values are percent increase in renal vascular resistance. MABP and HR are increases in mean arterial blood pressure and heart rate, respectively, relative to controls.

The mark [3] stands for this setting: read-out: CF, percent change in cardiac force.
The mark [4] stands for this setting: read-out: HR, percent change in heart rate.
The mark [5] stands for this setting: read-out: MABP, mean arterial blood pressure.
Where [6] appears, read: read-out: dP/dt, maximum change left ventricular pressure with time.
The mark [7] stands for this setting: relative to controls, read-out: HR, percent change in heart rate.
Where [8] appears, read: relative to controls, read-out: MABP, mean arterial blood pressure.
[9] abbreviates: relative to controls, read-out: RBF, renal blood flow.
[10] abbreviates: relative to controls, read-out: RVR, renal vascular resistance.

This note sets out measurements from US4714705A, “4-nitrogen substituted isoquinolinol compounds having cardiotonic, phosphodiesterase fraction III inhibiting properties and/or renal vasodilating properties” (Ortho Pharmaceutical Corporation, priority 1986, dated 1987).

Read-outs that look alike come from different tables or passages of the source.

Consider `CCOc1cc2c([N+](=O)[O-])c(O)nc(C)c2cc1OC` [BAN], for which the change in vivo at 0.12 mg/kg with adult mongrel dogs [1] (setting [3]) was 49%; in the test on adult mongrel dogs [1] (setting [4]), 4%; in the test on adult mongrel dogs [1] (setting [5]), -18%; in the test with adult mongrel dogs [1] (setting [6]), 12%. The change in vivo at 6.2 mg/kg in the test on adult mongrel dogs [2] (setting [7]) was -5%; in the test on adult mongrel dogs [2] (setting [8]) it was 1%; with adult mongrel dogs [2] (setting [9]), 61%; with adult mongrel dogs [2] (setting [10]), -37%.

In the case of `CCOc1cc2c(C)nc(O)c(NC(C)=O)c2cc1OC` [BJ], the change in vivo at 1.875 mg/kg in the test on adult mongrel dogs [1] (setting [3]) is 21%; in the test on adult mongrel dogs [1] (setting [4]), -3%; with adult mongrel dogs [1] (setting [5]), 1%; with adult mongrel dogs [1] (setting [6]) it was 8%. Also, the change in vivo at 6.34 mg/kg with adult mongrel dogs [2] (iv, read-out: HR, percent change in heart rate) is -16%; in the test with adult mongrel dogs [2] (6.34 mg/kg intravenous, relative to controls, read-out: MABP, mean arterial blood pressure), -4%; in the test on adult mongrel dogs [2] (6.34 mg/kg intravenous, relative to controls, read-out: RBF, renal blood flow) it was 18%; in the test with adult mongrel dogs [2] (6.34 mg/kg intravenous, relative to controls, read-out: RVR, renal vascular resistance), -19%.

For the molecule `CCCCOc1cc2c(C)nc(O)c([N+](=O)[O-])c2cc1OC` [BI], the change in vivo at 0.375 mg/kg with adult mongrel dogs [1] (setting [3]) is 118%; in the test with adult mongrel dogs [1] (setting [4]) it was 30%; in the test with adult mongrel dogs [1] (setting [5]), -35%; in the test on adult mongrel dogs [1] (setting [6]) it was 8%. Moreover, the change in vivo at 0.14 mg/kg is -8% with adult mongrel dogs [2] (setting [8]), 16% in the test on adult mongrel dogs [2] (setting [9]) and -18% in the test with adult mongrel dogs [2] (setting [10]).

As for `COc1cc2cnc(O)c(NC(C)=O)c2cc1OC` [BF], the change in vivo at 1.875 mg/kg with adult mongrel dogs [1] (setting [3]) is 23%; with adult mongrel dogs [1] (setting [4]), 7%; in the test on adult mongrel dogs [1] (setting [5]) it was 1%; in the test on adult mongrel dogs [1] (setting [6]), 38%. The change in vivo at 6.2 mg/kg with adult mongrel dogs [2] (setting [7]) was -8%; with adult mongrel dogs [2] (setting [8]) it was 14%; in the test with adult mongrel dogs [2] (setting [9]), 30%; with adult mongrel dogs [2] (setting [10]) it was -12%.

Regarding `COc1cc2c(C)nc(O)c(N)c2cc1OC` [Compound BBQ, 4-Amino-3-hydroxy-6,7-dimethoxy-1-methylisoquinoline], the change in vivo at 0.875 mg/kg with adult mongrel dogs [1] (setting [3]) was 99%; in the test with adult mongrel dogs [1] (setting [4]), 7%; in the test on adult mongrel dogs [1] (setting [5]), -5%; with adult mongrel dogs [1] (setting [6]), 106%. For the same molecule, the change in vivo at 1.2 mg/kg was 4% in the test on adult mongrel dogs [2] (setting [7]), 6% in the test on adult mongrel dogs [2] (setting [8]), 22% in the test with adult mongrel dogs [2] (setting [9]) and -12% with adult mongrel dogs [2] (setting [10]).

As to `CCOc1cc2c(C)nc(O)c([N+](=O)[O-])c2cc1OC` [BH], the change in vivo at 0.125 mg/kg in the test on adult mongrel dogs [1] (setting [3]) is 134%; with adult mongrel dogs [1] (setting [4]), 18%; with adult mongrel dogs [1] (setting [5]), -24%; in the test with adult mongrel dogs [1] (setting [6]), 74%. Also, the change in vivo at 0.04 mg/kg in the test on adult mongrel dogs [2] (setting [7]) is 19%; in the test on adult mongrel dogs [2] (setting [8]) it was -10%; in the test with adult mongrel dogs [2] (setting [9]), 25%; with adult mongrel dogs [2] (setting [10]), -28%.

Turning to `COc1cc2c(-c3ccccc3)nc(O)c([N+](=O)[O-])c2cc1OC` [BL], the change in vivo at 1.875 mg/kg with adult mongrel dogs [1] (setting [3]) is 10%; in the test on adult mongrel dogs [1] (setting [4]), -29%; in the test with adult mongrel dogs [1] (setting [5]) it was -15%; in the test with adult mongrel dogs [1] (setting [6]), 11%. In addition, the change in vivo at 0.34 mg/kg with adult mongrel dogs [2] (setting [7]) was 29%; with adult mongrel dogs [2] (setting [8]), 6%; in the test on adult mongrel dogs [2] (setting [9]) it was 13%; in the test with adult mongrel dogs [2] (setting [10]), -5%.

Turning to `COc1cc2c(C)nc(O)c(NC(C)=O)c2cc1OC` [Compound BG, 4-Acetamido-3-hydroxy-6,7-dimethoxy-1-methylisoquinoline Hemihydrate], the change in vivo at 8.75 mg/kg in the test with adult mongrel dogs [1] (setting [3]) is 47%; in the test with adult mongrel dogs [1] (setting [4]) it was 5%; in the test on adult mongrel dogs [1] (setting [5]), -3%; with adult mongrel dogs [1] (setting [6]) it was 33%. Also, the change in vivo at 6.2 mg/kg in the test with adult mongrel dogs [2] (setting [7]) was 14%; in the test on adult mongrel dogs [2] (setting [8]) it was 6%; with adult mongrel dogs [2] (setting [9]), 39%; in the test on adult mongrel dogs [2] (setting [10]) it was -24%.

Turning to `COc1cc2c(C)nc(O)c([N+](=O)[O-])c2cc1OC` [Compound BA, 3-Hydroxy-6,7-dimethoxy-1-methyl-4-nitroisoquinoline], the change in vivo at 0.15 mg/kg is 92% with adult mongrel dogs [1] (setting [3]), 8% in the test with adult mongrel dogs [1] (setting [4]), -19% in the test with adult mongrel dogs [1] (setting [5]) and 63% with adult mongrel dogs [1] (setting [6]). In addition, the change in vivo at 0.2 mg/kg with adult mongrel dogs [2] (setting [7]) was 83%; in the test on adult mongrel dogs [2] (setting [8]) it was -12%; in the test with adult mongrel dogs [2] (setting [9]), 14%; with adult mongrel dogs [2] (setting [10]), -23%.
